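All cell lines were grown in 96-well plates and treated with compound for 48 hours. Abbreviation: GI50, concentration required for 50% inhibition of growth.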 Calls of active or inactive are those of the source. Cut-off read from the data, not from the text of the source: active = GI50 up to about 1.1 µM and inactive = higher.
Legend:
Assay in all cases: NCI-60 cell line screen, 48 h
UO-31 = tested on: UO-31
SF-295 = tested on: SF-295
EKVX = tested on: EKVX
SF-539 = tested on: SF-539
HCC 2998 = tested on: HCC 2998
HT-29 = tested on: HT-29
SN12C = tested on: SN12C
K562 = tested on: K562
HCT-116 = tested on: HCT-116
M14 = tested on: M14
NCI-H522 = tested on: NCI-H522
LOX IMVI = tested on: LOX IMVI
DU-145 = tested on: DU-145
A498 = tested on: A498
Hs-578T = tested on: Hs-578T
MCF7 = tested on: MCF7
SW-620 = tested on: SW-620
SR = tested on: SR

SMILES | GI50 (UO-31) | GI50 (SF-295) | GI50 (EKVX) | GI50 (SF-539) | GI50 (HCC 2998) | GI50 (HT-29) | GI50 (SN12C) | GI50 (K562) | GI50 (HCT-116) | GI50 (M14) | GI50 (NCI-H522) | GI50 (LOX IMVI) | GI50 (DU-145) | GI50 (A498) | GI50 (Hs-578T) | GI50 (MCF7) | GI50 (SW-620) | GI50 (SR)
Nc1c(S(=O)(=O)c2ccc(Cl)cc2)c2nc3ccccc3nc2n2ccnc12 | > 100 µM (inactive) | > 100 µM (inactive) | 93.8 µM (inactive) | 17.4 µM (inactive) | > 100 µM (inactive) | > 100 µM (inactive) | > 100 µM (inactive) | > 100 µM (inactive) | 44.3 µM (inactive) | > 100 µM (inactive) | 53.7 µM (inactive) | – | – | – | – | – | – | –
CCOC(=O)C1C(c2ccco2)C2(C#N)C(=N)OC1(C)C2(C#N)C#N (centres undefined) | > 100 µM (inactive) | > 100 µM (inactive) | > 100 µM (inactive) | > 100 µM (inactive) | > 100 µM (inactive) | > 100 µM (inactive) | > 100 µM (inactive) | > 100 µM (inactive) | > 100 µM (inactive) | > 100 µM (inactive) | > 100 µM (inactive) | > 100 µM (inactive) | > 100 µM (inactive) | > 100 µM (inactive) | > 100 µM (inactive) | > 100 µM (inactive) | > 100 µM (inactive) | –
N/N=C1\CCCc2c1no[n+]2[O-] | > 100 µM (inactive) | > 100 µM (inactive) | > 100 µM (inactive) | > 100 µM (inactive) | > 100 µM (inactive) | > 100 µM (inactive) | > 100 µM (inactive) | > 100 µM (inactive) | > 100 µM (inactive) | > 100 µM (inactive) | > 100 µM (inactive) | > 100 µM (inactive) | > 100 µM (inactive) | > 100 µM (inactive) | > 100 µM (inactive) | > 100 µM (inactive) | > 100 µM (inactive) | > 100 µM (inactive)
COc1c(-c2ccc(F)cc2)oc2cc(O)cc(O)c2c1=O | 16.6 µM (inactive) | 26.1 µM (inactive) | 14.6 µM (inactive) | 19.8 µM (inactive) | 14.5 µM (inactive) | 22.7 µM (inactive) | 30.3 µM (inactive) | 38.9 µM (inactive) | 30.5 µM (inactive) | 34.8 µM (inactive) | 20.5 µM (inactive) | 21.8 µM (inactive) | 29 µM (inactive) | 47.6 µM (inactive) | 35.2 µM (inactive) | 33.7 µM (inactive) | 43 µM (inactive) | 28.2 µM (inactive)
CSCC[C@H](NC(=O)[C@H](CC(C)C)NC(=O)[C@@H](Cc1ccccc1)NC(=O)CNC(=O)[C@@H](NC(=O)[C@H](C)NC(=O)[C@H](Cc1c[nH]c2ccccc12)NC(=O)[C@H](CCC(N)=O)NC(=O)[C@H](N)CC(N)=O)C(C)C)C(N)=O | – | > 12.5 µM (inactive) | > 12.5 µM (inactive) | > 12.5 µM (inactive) | > 12.5 µM (inactive) | > 12.5 µM (inactive) | > 12.5 µM (inactive) | > 12.5 µM (inactive) | > 12.5 µM (inactive) | > 12.5 µM (inactive) | – | > 12.5 µM (inactive) | > 12.5 µM (inactive) | > 12.5 µM (inactive) | > 12.5 µM (inactive) | > 12.5 µM (inactive) | > 12.5 µM (inactive) | 0.0269 µM (active)
O=C1C(NCCc2cc(Br)c(O)c(Br)c2)=CC(=O)c2ncccc21 | 5.87 µM (inactive) | 2.34 µM (inactive) | 16.3 µM (inactive) | 2.37 µM (inactive) | 6.58 µM (inactive) | 3.63 µM (inactive) | 3.8 µM (inactive) | 3.21 µM (inactive) | 3.71 µM (inactive) | 2.51 µM (inactive) | 3.17 µM (inactive) | 1.78 µM (inactive) | 3.66 µM (inactive) | 4.08 µM (inactive) | 3.1 µM (inactive) | 4.09 µM (inactive) | 4.24 µM (inactive) | 1.87 µM (inactive)
CC12CCC3[C@@H](CC3(C)C)C(O)(CCC1=O)C2 (some centres undefined) | > 100 µM (inactive) | > 100 µM (inactive) | > 100 µM (inactive) | > 100 µM (inactive) | > 100 µM (inactive) | > 100 µM (inactive) | > 100 µM (inactive) | > 100 µM (inactive) | > 100 µM (inactive) | > 100 µM (inactive) | – | > 100 µM (inactive) | > 100 µM (inactive) | – | > 100 µM (inactive) | > 100 µM (inactive) | > 100 µM (inactive) | > 100 µM (inactive)
Cc1cc(C)nc(Sc2c([N+](=O)[O-])ncn2C)n1 | > 100 µM (inactive) | > 100 µM (inactive) | > 100 µM (inactive) | > 100 µM (inactive) | > 100 µM (inactive) | > 100 µM (inactive) | > 100 µM (inactive) | > 100 µM (inactive) | > 100 µM (inactive) | > 100 µM (inactive) | > 100 µM (inactive) | 57.1 µM (inactive) | – | > 100 µM (inactive) | – | – | > 100 µM (inactive) | > 100 µM (inactive)
